# Measurements from PMC10810651, “Discovery of novel and potent CDK8 inhibitors for the treatment of acute myeloid leukaemia” (Journal of Enzyme Inhibition and Medicinal Chemistry, 2024).
# Read-outs that look alike come from different tables or passages of the source.
# Key:
# molm-13 = test: Antiproliferative CCK-8 assay, molm-13; format: cell-based; conditions: Homo sapiens; molm-13, CCK-8 assay, means ± SD; read-out: GC50 (the source's name)
# Excerpt: (§1) Compounds12, 13 and 30 were selected for further cell activity assessments based on the enzymatic activity assessment results. molm-13 and MV4-11(acute myeloid lineage leukaemia cells), MGC-803 (gastric cancer cell), MDA-MB-231(breast cancer cell), A375 (melanoma cell), A549 (lung cancer cell), HCT-116, SW-480 and HT-29 (colorectal cancer cells) were selected to evaluate antitumor activity in vitro, GES-1 (gastric mucosal epithelial cell) was selected to evaluate toxicity in vitro.
# (§2) CO2 atmosphere incubator for 24 h. Then, medium with compound at the concentrations of 100, 20, 4, 0.8, 0.016 μM was added into each well for another 48 h and incubated with CCK-8 (10 μL) for 2 h at 37 °C. The absorbance value at 450 nm was measured by the microplate reader (PerkinElmer Envision). […]
# A549 = test: Antiproliferative CCK-8 assay, A549; format: cell-based; conditions: Homo sapiens; A549, CCK-8 assay, means ± SD; read-out: GC50 (the source's name)
# Excerpt: as §1, §2
# A375 = test: Antiproliferative CCK-8 assay, A375; format: cell-based; conditions: Homo sapiens, A-375; A375, CCK-8 assay, means ± SD; read-out: GC50 (the source's name)
# Excerpt: as §1, §2
# HCT-116 = test: Antiproliferative CCK-8 assay, HCT-116; format: cell-based; conditions: Homo sapiens; HCT-116, CCK-8 assay, means ± SD; read-out: GC50 (the source's name)
# Excerpt: as §1, §2
# CYP3A4/5 = test: CYP inhibition activity, 3A4/5 (M); format: in vitro ADME; conditions: human; CYP 3A4/5 (M)
# Excerpt: Table 7. CYP inhibition activity. | column: IC50 (μM) / 3A4/5 (M)
# CDK9 = CDK9 (Homo sapiens, UniProt P50750); test: CDKs selectivity, CDK9; format: biochemical
# Sequence of CDK9 (P50750 whole entry): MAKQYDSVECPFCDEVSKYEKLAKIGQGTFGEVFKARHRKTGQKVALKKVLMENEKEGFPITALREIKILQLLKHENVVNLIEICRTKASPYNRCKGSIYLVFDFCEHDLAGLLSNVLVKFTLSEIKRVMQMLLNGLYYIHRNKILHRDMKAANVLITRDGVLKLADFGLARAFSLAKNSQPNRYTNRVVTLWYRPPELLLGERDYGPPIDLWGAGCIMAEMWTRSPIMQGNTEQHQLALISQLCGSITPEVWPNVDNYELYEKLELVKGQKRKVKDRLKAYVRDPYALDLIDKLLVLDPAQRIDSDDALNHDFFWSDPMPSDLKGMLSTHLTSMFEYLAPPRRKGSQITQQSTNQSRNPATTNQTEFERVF
# Excerpt: (§3) CDK7 and CDK9 with the same transcription function and CDK2 and CDK6 were selected to evaluate the selectivity of compound 12.
# STAT1 Tyr701 = test: Phosphorylation of STAT1 Tyr701, western blot; format: cell-based; conditions: HCT-116 cells, 1, 2, 4 μM, 12 h
# Description: It has been reported that CDK8 could specifically target the transactivation domain of STAT1 at Ser727 phosphorylation. HCT-116 cells were treated with compounds 12 with different concentrations of 1 μM, 2 μM, 4 μM separately to verify compound 12 could inhibit the phosphorylation of STAT1 Ser727. […] It’s reported that CDK8 was also involved in S726 phosphorylation of STAT5 in AML cells.
# 1.7 The effect of compound on phosphorylation of STAT1 S727
# HCT-116 cells were seeded into 60 mm cultural dishes at a density of 1.5×10^6 cells per dishes. After incubated for 12 h, cells were treated with DMSO or 10ng/mL IFN-γ.1 hour later, cells were treated with or without different concentrations of compound for 12 h. Cells were lysed using RIPA containing PMSF and phosphatase inhibitor cocktail A. Then cell samples were treated by western blot. Levels of total STAT1, phosphorylated STAT1 S727, Y701 and GAPDH were analyzed.
# 1.8 The effect of compound on phosphorylation of STAT5 S726
# HL-60 cells were seeded into 60 mm cultural dishes at a density of 2×10^6 cells per dishes. […]
# Levels of total STAT5, phosphorylated STAT5 S726 and GAPDH were analyzed.
# The results were expressed as the means ± SEMs (SPSS software), and the differences between groups were evaluated using Turkey’s method (GraphPad Software). […]
# CDK7 = CDK7 (Homo sapiens, UniProt P50613); test: CDKs selectivity, CDK7; format: biochemical
# Sequence of CDK7 (P50613 whole entry): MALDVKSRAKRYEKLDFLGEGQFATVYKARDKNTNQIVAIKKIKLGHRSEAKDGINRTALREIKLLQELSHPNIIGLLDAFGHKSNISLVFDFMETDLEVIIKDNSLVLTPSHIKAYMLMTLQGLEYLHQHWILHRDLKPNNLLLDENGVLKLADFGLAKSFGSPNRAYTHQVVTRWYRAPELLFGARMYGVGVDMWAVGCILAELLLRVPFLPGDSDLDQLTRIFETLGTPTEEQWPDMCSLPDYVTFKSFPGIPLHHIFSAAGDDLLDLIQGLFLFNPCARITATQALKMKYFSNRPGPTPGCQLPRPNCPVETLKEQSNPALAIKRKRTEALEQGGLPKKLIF
# Sequence of CDK7 (P51946 whole entry partner): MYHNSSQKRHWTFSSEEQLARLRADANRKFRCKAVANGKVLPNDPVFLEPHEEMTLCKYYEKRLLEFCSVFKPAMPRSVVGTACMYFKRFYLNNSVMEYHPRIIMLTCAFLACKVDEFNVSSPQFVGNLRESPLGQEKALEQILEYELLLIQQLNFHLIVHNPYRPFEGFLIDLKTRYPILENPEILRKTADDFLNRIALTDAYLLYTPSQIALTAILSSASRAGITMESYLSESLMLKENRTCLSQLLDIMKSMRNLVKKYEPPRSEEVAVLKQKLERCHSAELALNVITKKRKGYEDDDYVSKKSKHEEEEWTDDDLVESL
# Sequence of CDK7 (P51948 whole entry partner): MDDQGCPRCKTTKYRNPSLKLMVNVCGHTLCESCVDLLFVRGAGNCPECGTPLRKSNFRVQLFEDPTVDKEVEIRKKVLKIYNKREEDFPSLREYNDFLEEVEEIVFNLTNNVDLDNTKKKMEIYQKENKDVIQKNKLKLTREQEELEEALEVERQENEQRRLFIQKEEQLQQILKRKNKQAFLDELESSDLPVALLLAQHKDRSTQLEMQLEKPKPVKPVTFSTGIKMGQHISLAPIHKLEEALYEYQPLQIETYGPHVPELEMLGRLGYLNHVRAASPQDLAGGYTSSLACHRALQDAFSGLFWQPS
# Excerpt: as §3
# CYP 1A2 = CYP 1A2 (Homo sapiens, UniProt P05177); test: CYP inhibition activity, 1A2; format: in vitro ADME
# Sequence of CYP 1A2 (P05177 whole entry): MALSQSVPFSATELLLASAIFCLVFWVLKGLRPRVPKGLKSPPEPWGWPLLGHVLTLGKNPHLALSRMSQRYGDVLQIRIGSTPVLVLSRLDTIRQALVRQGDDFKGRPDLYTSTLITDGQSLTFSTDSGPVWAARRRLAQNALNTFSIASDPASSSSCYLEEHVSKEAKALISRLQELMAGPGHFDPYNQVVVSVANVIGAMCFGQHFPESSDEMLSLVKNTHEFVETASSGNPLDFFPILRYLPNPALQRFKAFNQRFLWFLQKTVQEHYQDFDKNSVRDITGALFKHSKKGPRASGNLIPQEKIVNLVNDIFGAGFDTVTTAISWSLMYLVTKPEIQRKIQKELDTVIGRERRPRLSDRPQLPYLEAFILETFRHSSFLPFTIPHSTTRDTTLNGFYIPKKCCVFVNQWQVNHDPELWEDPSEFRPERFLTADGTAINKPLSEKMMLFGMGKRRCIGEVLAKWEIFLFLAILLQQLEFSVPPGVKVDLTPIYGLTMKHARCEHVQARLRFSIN
# Excerpt: Table 7. CYP inhibition activity. | column: IC50 (μM) / 1A2
# [1] = In vivo pharmacokinetic evaluation
# Description: Pharmacokinetic data is an important parameter for small molecule drugs. Here, the pharmacokinetic data of compound 12 was performed. […] Based on the above data analysis, we believed it is possible that compound 12 could be used as an oral medication (Figure 7).
# CYP 2C19 = CYP 2C19 (Homo sapiens, UniProt P33261); test: CYP inhibition activity, 2C19; format: in vitro ADME
# Sequence of CYP 2C19 (P33261 whole entry): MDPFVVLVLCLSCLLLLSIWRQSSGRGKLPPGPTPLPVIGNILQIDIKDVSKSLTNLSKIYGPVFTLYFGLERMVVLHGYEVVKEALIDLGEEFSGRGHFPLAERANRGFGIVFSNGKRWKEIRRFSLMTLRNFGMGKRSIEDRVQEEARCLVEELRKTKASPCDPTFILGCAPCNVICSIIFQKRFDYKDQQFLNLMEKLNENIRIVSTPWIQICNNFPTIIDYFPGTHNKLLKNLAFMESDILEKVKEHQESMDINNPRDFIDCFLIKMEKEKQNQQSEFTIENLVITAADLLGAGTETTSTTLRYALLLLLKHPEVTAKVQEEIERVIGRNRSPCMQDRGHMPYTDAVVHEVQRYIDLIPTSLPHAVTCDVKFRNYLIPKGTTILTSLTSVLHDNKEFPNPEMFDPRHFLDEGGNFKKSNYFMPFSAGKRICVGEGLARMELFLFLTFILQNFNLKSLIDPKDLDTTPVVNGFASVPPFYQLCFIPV
# Excerpt: Table 7. CYP inhibition activity. | column: IC50 (μM) / 2C19
# HT-29 = test: Antiproliferative CCK-8 assay, HT-29; format: cell-based; conditions: Homo sapiens; HT-29, CCK-8 assay, means ± SD; read-out: GC50 (the source's name)
# Excerpt: as §1, §2
# [2] = blood, iv, 2 mg/kg, 2 mg/kg (iv)
# [3] = blood, po, 10 mg/kg, 10 mg/kg (po)
smiles,measurement,setting,value
"NC(=O)c1cccc(-c2cnc3[nH]cc(-c4ccoc4)c3c2)c1 [Compound 12, 3-(3-(furan-3-yl)-1H-pyrrolo[2,3-b]pyridin-5-yl)benzamide]",IC50,molm-13,0.02 ± 0.01 µM
same,IC50,A549,15.5 ± 2.78 µM
same,IC50,A375,1 ± 0.23 µM
same,IC50,HCT-116,3.66 ± 1.94 µM
same,IC50,CYP3A4/5,> 5e-05 M
same,IC50,CDK9,0.474 ± 0.0253 µM
same,Phosphorylation of STAT1 Tyr701,STAT1 Tyr701,not inhibited
same,IC50,CDK7,0.301 ± 0.0278 µM
same,IC50,CYP 1A2,> 50 µM
same,AUC 0-∞,[1]; 2 mg/kg (iv),829.75 ng·h/mL
same,Cmax,[1]; 2 mg/kg (iv),647.79 ng/mL
same,AUC 0-∞,[1]; 10 mg/kg (po),1611.67 ng·h/mL
same,CL,[1]; 10 mg/kg (po),104 mL/min/kg
same,Cmax,[1]; 10 mg/kg (po),821.82 ng/mL
same,AUC(0-inf),[1]; [2],830 ng·h/mL
same,half-life,[1]; [2],~1.12 h
same,Cmax,"[1]; blood, iv, 2 mg/kg, 2 mg/kg (iv), read-out: Cmax",648 ng/mL
same,AUC(0-inf),[1]; [3],1610 ng·h/mL
same,half-life,[1]; [3],0.95 h
same,Cmax,"[1]; blood, po, 10 mg/kg, 10 mg/kg (po), read-out: Cmax",822 ng/mL
same,MRT,"[1]; blood, 2 mg/kg (iv)",1.64 h
same,Tmax,"[1]; blood, 2 mg/kg (iv)",0.33 h
same,clearance,"[1]; blood, 2 mg/kg (iv)",40.8 mL/min/kg
same,MRT,"[1]; blood, 10 mg/kg (po)",2.24 h
same,Tmax,"[1]; blood, 10 mg/kg (po)",0.88 h
same,bioavailability,"[1]; blood, 10 mg/kg (po) vs 2 mg/kg (iv)",38.8%
same,IC50,CYP 2C19,> 50 µM
same,IC50,HT-29,8.26 ± 0.65 µM
